Measured values published in patent publication US20160280651A1, “COMPOUNDS THAT INDUCE ABA RESPONSES” (THE REGENTS OF THE UNIVERSITY OF CALIFORNIA, priority 2013, published 2016).

Tested on: aba2 mutant plants
Assay: Rescue of growth defects of ABA-deficient mutant aba2
Type: in vivo, Arabidopsis
Conditions: 25 μM sprayed two times a day for two weeks; versus DMSO
Procedure: FIG. 16A-FIG. 16B. Application of LC66C6 can rescue growth defects observed in the ABA-deficient mutant aba2. Chemical solution (25 μM) was sprayed on 14-day-plants two times per day for 2 weeks. The image (A) and fresh weight (B) were obtained from 4-week plants.
In this example, 14-day old wild-type and aba2 mutant plants were sprayed with a solution containing 25 μM of agonist two times a day for two weeks. Images and fresh weight were obtained from 4 week old plants.

CCCN1C(=O)CCc2cc(NS(=O)(=O)Cc3ccc(C)cc3)ccc21 [LC66C6]
Size of aba2 mutant plants: significantly increased the size of the mutant plants
